Key:
Assay in all cases: relative viability (nuclei count vs DMSO), 5 days (fraction); higher = more cells survive
[1] = compound: C1COCCN1C2=NC(=NC3=C2OC4=C3C=CC=N4)C5=CC(=CC=C5)NC(=O)C6=CN=C(C=C6)N + N=C(N)NC(=N)NCCc1ccccc1 [Phenformin] (partner 250 µM)
In short: (§1)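 Dosing by pin tool came one day after lung cancer cell lines were seeded in 1536-well plates, using either one drug or a fixed anchor-drug dose plus five library-drug doses (not always all listed) in √10 steps. After 5 days, nuclei were counted on 4× images. Relative viability is treated-well nuclei count divided by vehicle-well nuclei count, and values are medians of duplicate plates.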

[2] = compound: C1COCCN1C2=NC(=NC3=C2OC4=C3C=CC=N4)C5=CC(=CC=C5)NC(=O)C6=CN=C(C=C6)N + CC1(C)CCC(c2ccc(Cl)cc2)=C(CN2CCN(c3ccc(C(=O)NS(=O)(=O)c4ccc(N[C@H](CCN5CCOCC5)CSc5ccccc5)c(S(=O)(=O)C(F)(F)F)c4)cc3)CC2)C1 [Navitoclax] (partner 0.5 µM)
In short: as §1

SGI-1776 + Luminespib = compound: CN1CCC(CNc2ccc3ncc(-c4cccc(OC(F)(F)F)c4)n3n2)CC1 [SGI-1776] + CCNC(=O)c1noc(-c2cc(C(C)C)c(O)cc2O)c1-c1ccc(CN2CCOCC2)cc1 [Luminespib] (partner 0.01 µM)
In short: as §1

SGI-1776 + Trametinib = compound: CN1CCC(CNc2ccc3ncc(-c4cccc(OC(F)(F)F)c4)n3n2)CC1 [SGI-1776] + CC(=O)Nc1cccc(-n2c(=O)n(C3CC3)c(=O)c3c(Nc4ccc(I)cc4F)n(C)c(=O)c(C)c32)c1 [Trametinib] (partner 0.02 µM)
In short: as §1

Row | Cell Line | relative viability ([1]; first compound 0.02 µM) | relative viability ([1]; first compound 0.06325 µM) | relative viability ([1]; first compound 0.2 µM) | relative viability ([1]; first compound 0.6325 µM) | relative viability ([1]; first compound 2 µM) | relative viability ([2]; first compound 0.02 µM) | relative viability ([2]; first compound 0.06325 µM) | relative viability ([2]; first compound 0.2 µM) | relative viability ([2]; first compound 0.6325 µM) | relative viability ([2]; first compound 2 µM) | relative viability (SGI-1776 + Luminespib; first compound 0.08 µM) | relative viability (SGI-1776 + Luminespib; first compound 0.8 µM) | relative viability (SGI-1776 + Luminespib; first compound 2.53 µM) | relative viability (SGI-1776 + Luminespib; first compound 8 µM) | relative viability (SGI-1776 + Trametinib; first compound 0.08 µM) | relative viability (SGI-1776 + Trametinib; first compound 0.8 µM) | relative viability (SGI-1776 + Trametinib; first compound 2.53 µM) | relative viability (SGI-1776 + Trametinib; first compound 8 µM)
1 | NCI-H2170 | 0.427 | 0.439 | 0.408 | 0.407 | 0.388 | 0.674 | 0.605 | 0.673 | 0.525 | 0.413 | 0.723 | 0.669 | 0.668 | 0.419 | 0.925 | 0.924 | 0.855 | 0.912
2 | HCC-366 | 0.63 | 0.709 | 0.644 | 0.644 | 0.573 | 1.13 | 1.21 | 1 | 1.11 | 0.526 |  |  |  |  | 0.344 | 0.368 | 0.289 | 0.19
3 | NCI-H2405 | 0.373 | 0.41 | 0.37 | 0.353 | 0.338 | 0.819 | 0.927 | 0.904 | 0.931 | 0.721 | 0.647 | 0.632 | 0.538 | 0.452 | 0.679 | 0.595 | 0.568 | 0.398
4 | COR-L 105 | 0.402 | 0.517 | 0.404 | 0.41 | 0.274 | 0.805 | 0.754 | 0.69 | 0.531 | 0.584 | 0.741 | 0.713 | 0.691 | 0.834 | 0.504 | 0.388 | 0.452 | 0.41
5 | 201T | 0.452 | 0.448 | 0.443 | 0.428 | 0.33 | 1.2 | 1.23 | 1.14 | 1.12 | 1.1 | 1.04 | 1.09 | 1.05 | 1.03 | 0.702 | 0.77 | 0.711 | 0.702
6 | NCI-H2228 | 0.322 | 0.392 | 0.273 | 0.233 | 0.222 | 0.959 | 1.31 | 0.783 | 1.3 | 0.348 | 0.169 | 0.139 | 0.164 | 0.13 | 0.591 | 0.487 | 0.52 | 0.35
7 | LCLC-103H | 0.328 | 0.34 | 0.33 | 0.343 | 0.252 |  |  |  |  |  | 0.965 | 0.88 | 0.948 | 0.729 | 0.658 | 0.689 | 0.633 | 0.642
8 | NCI-H2087 | 0.515 | 0.595 | 0.495 | 0.447 | 0.31 | 1.02 | 1.03 | 0.925 | 0.918 | 0.608 | 0.138 | 0.212 | 0.183 | 0.17 | 0.151 | 0.164 | 0.16 | 0.17
9 | NCI-H358 |  | 0.36 | 0.269 | 0.248 | 0.169 |  |  |  |  |  | 0.729 | 0.506 | 0.432 | 0.315 | 0.14 | 0.146 | 0.128 | 0.123
10 | H3255 | 0.362 | 0.357 | 0.368 | 0.326 | 0.338 | 0.54 | 0.553 | 0.533 | 0.421 | 0.467 | 0.988 | 1.1 | 0.894 | 0.665 | 0.633 | 0.582 | 0.577 | 0.559
11 | NCI-H23 | 0.818 |  | 0.815 | 0.747 | 0.669 | 0.788 | 0.968 | 0.733 | 0.72 | 0.533 | 0.217 | 0.221 | 0.238 | 0.192 | 0.328 | 0.29 | 0.372 | 0.304
12 | CAL-12T | 0.525 | 0.561 | 0.533 | 0.498 | 0.247 | 1.06 | 1.41 | 1.23 | 1.11 | 0.883 | 0.331 | 0.394 | 0.452 | 0.519 | 0.433 | 0.399 | 0.33 | 0.288
13 | A-427 | 0.397 | 0.359 | 0.275 | 0.245 | 0.292 | 1 | 0.964 | 0.812 | 0.864 | 0.835 | 0.915 | 0.856 | 0.755 | 0.869 | 0.749 | 0.726 | 0.722 | 0.542
14 | HARA | 0.413 | 0.586 | 0.487 | 0.431 | 0.363 | 1.2 | 1.17 | 1.21 | 1.19 | 0.897 | 0.862 | 0.67 | 0.67 | 0.0476 | 0.652 | 0.74 | 0.604 | 0.732
15 | NCI-H1793 | 0.393 | 0.483 | 0.404 | 0.372 | 0.277 | 0.398 | 0.523 | 0.416 | 0.655 | 0.375 | 0.217 | 0.163 | 0.286 | 0.161 | 0.418 | 0.518 | 0.589 | 0.444
16 | NCI-H1623 | 0.634 | 0.587 | 0.6 | 0.562 | 0.407 |  |  |  |  |  | 0.468 | 0.612 | 0.576 | 0.506 |  |  |  | 
17 | NCI-H2023 | 0.424 | 0.457 | 0.346 | 0.32 | 0.156 | 1.05 | 1.03 | 0.967 | 0.904 | 0.444 | 0.746 | 0.77 | 0.693 | 0.363 | 0.539 | 0.508 | 0.491 | 0.312
18 | ABC-1 | 0.225 | 0.242 | 0.241 | 0.235 | 0.207 |  |  |  |  |  | 0.308 | 0.577 | 0.52 | 0.51 |  |  |  | 
19 | LC-2-ad | 0.551 | 0.598 | 0.456 | 0.493 | 0.49 | 0.461 | 0.529 | 0.418 | 0.611 | 0.379 | 0.983 | 1.09 | 1.06 | 0.769 | 0.885 | 0.926 | 0.931 | 0.822

Reference: the supplement of paper PMC10307832
